We go through 22 compounds from ChEMBL document CHEMBL4673347, “Discovery of new thieno[2,3-d]pyrimidine and thiazolo[5,4-d]pyrimidine derivatives as orally active phosphoinositide 3-kinase inhibitors” (Bioorg Med Chem, 2021).

Usually IC50 stands for the midpoint of a concentration-inhibition curve.

Experiment [1] concerns HGC-27. In words: Antiproliferative activity against human HGC-27 cells assessed as reduction in cell viability incubated for 72 hrs measured after 4 hrs of MTT addition by MTT assay. Format: functional, cell-based.
Experiment [2] has as its target Phosphatidylinositol 4,5-bisphosphate 3-kinase catalytic subunit alpha isoform (Homo sapiens, UniProt P42336). Description: Inhibition of recombinant human full length His-tagged PI3Kalpha expressed in baculovirus expression system using PIP2 as substrate by ADP-Glo reagent based assay.
The test system of experiment [3] is HGC-27. Description: Induction of apoptosis in human HGC-27 cells assessed as late apoptotic cells at 500 nM incubated for 24 hrs by annexin V-FITC and propidium iodide based staining based flow cytometry analysis (reference value: 8.15 %). Format: functional.
Experiment [4] concerns HGC-27. Description: Induction of apoptosis in human HGC-27 cells assessed as necrotic cells at 500 nM incubated for 24 hrs by annexin V-FITC and propidium iodide based staining based flow cytometry analysis (reference value: 1.95 %). It is filed as functional. Background: Flow cytometry measures light scatter and fluorescence of single cells or particles in a stream.
Experiment [5] deals with HGC-27. Description: Induction of apoptosis in human HGC-27 cells assessed as viable cells at 500 nM incubated for 24 hrs by annexin V-FITC and propidium iodide based staining based flow cytometry analysis (reference value: 83.7 %). The following applies: read-out: Activity. It is filed as functional.
Experiment [6] has as its system HGC-27. Description: Induction of apoptosis in human HGC-27 cells assessed as early apoptotic cells at 500 nM incubated for 24 hrs by annexin V-FITC and propidium iodide based staining based flow cytometry analysis (reference value: 6.22 %). Format: functional.

Chain of Phosphatidylinositol 4,5-bisphosphate 3-kinase catalytic subunit alpha isoform (P42336 whole entry, canonical isoform): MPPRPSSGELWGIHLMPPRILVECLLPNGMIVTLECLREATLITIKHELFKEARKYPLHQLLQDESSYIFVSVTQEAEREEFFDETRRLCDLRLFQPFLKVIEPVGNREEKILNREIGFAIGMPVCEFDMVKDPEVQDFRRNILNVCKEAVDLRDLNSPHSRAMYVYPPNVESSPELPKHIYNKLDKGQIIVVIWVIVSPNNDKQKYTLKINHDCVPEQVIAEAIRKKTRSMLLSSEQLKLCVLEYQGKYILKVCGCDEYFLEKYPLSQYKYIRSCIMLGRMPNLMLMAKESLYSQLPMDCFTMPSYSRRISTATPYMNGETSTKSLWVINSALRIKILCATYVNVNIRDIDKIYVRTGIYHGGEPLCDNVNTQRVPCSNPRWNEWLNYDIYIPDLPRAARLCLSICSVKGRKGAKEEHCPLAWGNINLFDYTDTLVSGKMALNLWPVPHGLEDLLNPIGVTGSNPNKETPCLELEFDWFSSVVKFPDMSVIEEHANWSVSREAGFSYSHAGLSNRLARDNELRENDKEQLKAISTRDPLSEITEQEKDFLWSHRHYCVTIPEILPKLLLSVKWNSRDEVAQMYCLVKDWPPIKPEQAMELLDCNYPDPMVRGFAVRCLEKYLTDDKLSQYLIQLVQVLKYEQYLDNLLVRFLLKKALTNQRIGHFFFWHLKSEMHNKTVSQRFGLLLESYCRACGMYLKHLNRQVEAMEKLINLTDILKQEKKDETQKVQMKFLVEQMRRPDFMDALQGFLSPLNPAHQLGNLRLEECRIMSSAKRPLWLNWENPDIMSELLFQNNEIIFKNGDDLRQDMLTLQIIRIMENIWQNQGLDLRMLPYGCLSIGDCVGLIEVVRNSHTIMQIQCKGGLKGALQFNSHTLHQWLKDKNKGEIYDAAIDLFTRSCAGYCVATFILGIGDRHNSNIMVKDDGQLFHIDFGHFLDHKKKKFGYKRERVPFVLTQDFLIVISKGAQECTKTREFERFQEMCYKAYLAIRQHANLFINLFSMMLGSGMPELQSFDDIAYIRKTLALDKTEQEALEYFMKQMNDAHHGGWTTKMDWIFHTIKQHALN

In the case of `COc1ncc(-c2nc3c(N4CCOC[C@@H]4C)ncnc3s2)cc1NS(=O)(=O)c1ccc(F)cc1F`, the IC50 worked out at 170 nM in experiment [1] and 2 nM in experiment [2].
For `COc1ncc(-c2cc3c(N4CCCC4)ncnc3s2)cc1NS(=O)(=O)c1ccc(F)cc1F` the same measures were 2300 nM and 14 nM.
In the case of `COc1ncc(-c2cc3c(N4CCC(OC)CC4)ncnc3s2)cc1NS(=O)(=O)c1ccc(F)cc1F`, the results for the IC50 in experiment [1] and in experiment [2] were 280 nM and 4.8 nM, respectively.
For `COc1ncc(-c2cc3c(N4C[C@@H](C)O[C@@H](C)C4)ncnc3s2)cc1NS(=O)(=O)c1ccc(F)cc1F` the same measures were 560 nM and 15 nM.
For `COc1ncc(-c2nc3c(N4CC5CCCC5C4)ncnc3s2)cc1NS(=O)(=O)c1ccc(F)cc1F` (stereo unspecified) the same measures were 310 nM and 6.3 nM.
For `COc1ncc(-c2cc3c(N4CCOC[C@@H]4C)ncnc3s2)cc1NS(=O)(=O)c1ccc(F)cc1F` the same measures were 670 nM and 11 nM.
Take `COc1ncc(-c2cc3c(N4CC5CCCC5C4)ncnc3s2)cc1NS(=O)(=O)c1ccc(F)cc1F` (stereo unspecified): the IC50 in experiment [1] was determined as 1900 nM; in experiment [2], 47 nM.
In the same order, the values of `COc1ncc(-c2cc3c(N4CCSCC4)ncnc3s2)cc1NS(=O)(=O)c1ccc(F)cc1F` are 810 nM and 17 nM.
For `COc1ncc(-c2cc3c(N4CCN(C)C(=O)C4)ncnc3s2)cc1NS(=O)(=O)c1ccc(F)cc1F` the same measures were 920 nM and 16 nM.
Consider `COc1ncc(-c2nc3c(N4CC(C)OC(C)C4)ncnc3s2)cc1NS(=O)(=O)c1ccc(F)cc1F` (stereo unspecified), for which the IC50 worked out at 270 nM in experiment [1] and 11 nM in experiment [2].
On to `COc1ncc(-c2nc3c(N4CCCCC4)ncnc3s2)cc1NS(=O)(=O)c1ccc(F)cc1F`, for which the IC50 in experiment [1] was 960 nM; in experiment [2], 8.8 nM.
In the same order, the values of `COc1ncc(-c2cc3c(N4CCOC[C@H]4C)ncnc3s2)cc1NS(=O)(=O)c1ccc(F)cc1F` are 470 nM and 14 nM.
In the same order, the values of `COc1ncc(-c2cc3c(-c4ccncc4)ncnc3s2)cc1NS(=O)(=O)c1ccc(F)cc1F` are 1700 nM and 5.1 nM.
As for `COc1ncc(-c2cc3c(N4CC5COCC5C4)ncnc3s2)cc1NS(=O)(=O)c1ccc(F)cc1F` (stereo unspecified), the IC50 in experiment [1] was found to be 300 nM; in experiment [2], 14 nM.
For the compound `COc1ncc(-c2nc3c(N4CCC(OC)CC4)ncnc3s2)cc1NS(=O)(=O)c1ccc(F)cc1F`, the results for the IC50 in experiment [1] and in experiment [2] were 74 nM and 1.3 nM, respectively.
For `COc1ncc(-c2cc3c(N4CCN(C)CC4)ncnc3s2)cc1NS(=O)(=O)c1ccc(F)cc1F` the same measures were 560 nM and 109 nM.
Consider `COc1ncc(-c2cc3c(N4CC(C)OC(C)C4)ncnc3s2)cc1NS(=O)(=O)c1ccc(F)cc1F` (racemic), for which the IC50 in experiment [1] amounted to 860 nM; in experiment [2], 16 nM.
In the same order, the values of `COc1ncc(-c2cc3c(N4CC(OC)C4)ncnc3s2)cc1NS(=O)(=O)c1ccc(F)cc1F` are 830 nM and 7.2 nM.
As to `COc1ncc(-c2cc3c(N4CCCCC4)ncnc3s2)cc1NS(=O)(=O)c1ccc(F)cc1F`, the IC50 worked out at 1200 nM in experiment [1] and 14 nM in experiment [2].
For `COc1ncc(-c2nc3c(N4CCCC4)ncnc3s2)cc1NS(=O)(=O)c1ccc(F)cc1F` the same measures were 1200 nM and 3.5 nM.
As for `Nc1cc(C(F)(F)F)c(-c2cc(N3CCOCC3)nc(N3CCOCC3)n2)cn1` [BUPARLISIB], the Activity in experiment [3] stood at 8.93%; in experiment [4], 0.3%; in experiment [6], 15.9%. Moreover, the viability at 0.5 µM in experiment [5] stood at 74.9%.
On to `COc1ncc(-c2nc3c(N4CCOC[C@H]4C)ncnc3s2)cc1NS(=O)(=O)c1ccc(F)cc1F`, for which the IC50 in experiment [1] was 47 nM; in experiment [2] it was 1.9 nM.
